US9018383B2, “Acylamino-substituted cyclic carboxylic acid derivatives and their use as pharmaceuticals” (Sanofi, priority 2009, dated 2015)

Molecular target: human Edg-2 receptor (Homo sapiens, UniProt Q92633)
Test: Determination of Edg-2 receptor inhibition by FLIPR measurements (LPA-mediated calcium liberation)
Type: cell-based
Conditions: CHO cells overexpressing human Edg-2 receptor, LPA 100 nM, fluo-4 calcium fluorescence; read-out: Inhibitory concentrations IC50 for inhibition of the Edg-2 receptor
Procedure, shortened: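 IC50 was derived from % inhibition of the baseline-corrected peak fluo-4 signal relative to DMSO, measured in triplicate. Compound was added ~5 min before 100 nM LPA (18:1) to human Edg-2–expressing CHO cells in pH 7.5 HBSS buffer with probenecid and HEPES, and fluorescence was monitored ~3 min.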

human Edg-2 receptor, sequence (Q92633 whole entry): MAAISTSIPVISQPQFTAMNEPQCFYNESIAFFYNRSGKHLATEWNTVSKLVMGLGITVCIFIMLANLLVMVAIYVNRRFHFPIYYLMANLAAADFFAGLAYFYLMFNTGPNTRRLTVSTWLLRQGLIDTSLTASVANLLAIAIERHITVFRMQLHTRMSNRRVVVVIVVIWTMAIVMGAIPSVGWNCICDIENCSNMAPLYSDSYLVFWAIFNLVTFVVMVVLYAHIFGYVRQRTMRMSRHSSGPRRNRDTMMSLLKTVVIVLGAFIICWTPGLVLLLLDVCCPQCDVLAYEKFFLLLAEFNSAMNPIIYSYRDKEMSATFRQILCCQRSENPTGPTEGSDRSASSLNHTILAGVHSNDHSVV

SMILES | IC50
Cc1cccc(CCOc2cc(C(=O)N[C@]3(C(=O)O)CC[C@H](C)CC3)ccc2OCCO)c1 [Example 123, cis-1-[4-(2-Hydroxy-ethoxy)-3-(2-m-tolyl-ethoxy)-benzoylamino]-4-methyl-cyclohexanecarboxylic acid] | < 100 nM
CC[C@H]1CC[C@](NC(=O)c2ccc(C(F)(F)F)c(-c3ccc(OC)c(Cl)c3)c2)(C(=O)O)CC1 [Example 125, cis-1-[(3′-Chloro-4′-methoxy-6-trifluoromethyl-biphenyl-3-carbonyl)-amino]-4-ethyl-cyclohexanecarboxylic acid] | < 100 nM
Cc1cccc(CCOc2cc(C(=O)NC3(C(=O)O)CCCCCC3)cc3c2OCO3)c1 [Example 132, 1-{[7-(2-m-Tolyl-ethoxy)-benzo[1,3]dioxole-5-carbonyl]-amino}-cycloheptanecarboxylic acid] | < 100 nM
Cc1cccc(CCOc2cc(C(=O)N[C@]3(C(=O)O)CC[C@H](C(F)(F)F)CC3)cc3c2OCO3)c1 [Example 133, cis-1-{[7-(2-m-Tolyl-ethoxy)-benzo[1,3]dioxole-5-carbonyl]-amino}-4-trifluoromethyl-cyclohexanecarboxylic acid] | < 100 nM
CC[C@H]1CC[C@](NC(=O)c2cc(OCCc3cccc(C)c3)c3c(c2)OCO3)(C(=O)O)CC1 [Example 134, cis-4-Ethyl-1-{[7-(2-m-tolyl-ethoxy)-benzo[1,3]dioxole-5-carbonyl]-amino}-cyclohexanecarboxylic acid] | < 100 nM
CC[C@H]1CC[C@@](NC(=O)c2ccc(OC)c(OCCc3ccccc3)c2)(C(=O)O)CC1 [Example 205] | < 100 nM
CC[C@H]1CC[C@](NC(=O)c2ccc(OC)c(OCCc3ccccc3)c2)(C(=O)O)CC1 [Example 206] | < 100 nM
CC[C@H]1CC[C@@](NC(=O)c2ccc(OC)c(OCCc3cccc(Cl)c3)c2)(C(=O)O)CC1 [Example 207] | < 100 nM
CC[C@H]1CC[C@](NC(=O)c2ccc(OC)c(OCCc3cccc(Cl)c3)c2)(C(=O)O)CC1 [Example 208] | < 100 nM
CC[C@H]1CC[C@](NC(=O)c2cnc(OC)c(-c3cccc(Cl)c3Cl)c2)(C(=O)O)CC1 [Example 300] | < 100 nM
CC[C@H]1CC[C@](NC(=O)c2cnc(OC)c(-c3cc(F)c(F)c(F)c3)c2)(C(=O)O)CC1 [Example 301] | < 100 nM
CC[C@H]1CC[C@](NC(=O)c2cnc(OC)c(-c3cccc(C(F)(F)F)c3)c2)(C(=O)O)CC1 [Example 303] | < 100 nM
CC[C@H]1CC[C@](NC(=O)c2cnc(OC)c(-c3cccc(C(F)(F)F)c3F)c2)(C(=O)O)CC1 [Example 304] | < 100 nM
CC[C@H]1CC[C@@](NC(=O)c2cnc(OC)c(-c3cccc(OC(F)(F)F)c3)c2)(C(=O)O)CC1 [Example 306] | < 100 nM
COc1ncc(C(=O)N[C@]2(C(=O)O)CC[C@@H](C)CC2)cc1-c1cccc(OC(F)(F)F)c1 [Example 308] | < 100 nM
CC[C@H]1CC[C@@](NC(=O)c2cnc(OC)c(-c3cccc(Cl)c3Cl)c2)(C(=O)O)CC1 [Example 309] | < 100 nM
CC[C@H]1CC[C@@](NC(=O)c2cnc(OC)c(-c3cc(F)c(F)c(F)c3)c2)(C(=O)O)CC1 [Example 312] | 100 to 1000 nM
COc1ncc(C(=O)N[C@]2(C(=O)O)CC[C@@H](C)CC2)cc1-c1cc(F)c(F)c(F)c1 [Example 314] | < 100 nM
COc1ncc(C(=O)N[C@]2(C(=O)O)CC[C@@H](C)CC2)cc1-c1cc(Cl)cc(C(F)(F)F)c1 [Example 315] | < 100 nM
COc1ncc(C(=O)N[C@]2(C(=O)O)CC[C@H](C)CC2)cc1-c1cccc(C(F)(F)F)c1 [Example 317] | < 100 nM
CC[C@H]1CC[C@@](NC(=O)c2ccc(OC)c(-c3cccc(OC(F)(F)F)c3)c2)(C(=O)O)CC1 [Example 328] | 100 to 1000 nM
CC[C@H]1CC[C@@](NC(=O)c2ccc(OC)c(-c3cccc(C(F)(F)F)c3)c2)(C(=O)O)CC1 [Example 332] | < 100 nM
COc1ccc(C(=O)N[C@]2(C(=O)O)CC[C@H](C)CC2)cc1-c1cccc(C(F)(F)F)c1 [Example 333] | < 100 nM
COc1ccc(C(=O)N[C@]2(C(=O)O)CC[C@@H](C)CC2)cc1-c1cccc(C(F)(F)F)c1 [Example 334] | 100 to 1000 nM

Continued, values first:

IC50 | SMILES
100 to 1000 nM | O=C(NC1(C(=O)O)CCCCCC1)c1ccc(OCCO)c(OCCc2cccc(Cl)c2)c1 [Example 121, 1-[3-[2-(3-Chloro-phenyl)-ethoxy]-4-(2-hydroxy-ethoxy)-benzoylamino]-cycloheptane-carboxylic acid]
< 100 nM | Cc1cccc(CCOc2cc(C(=O)N[C@]3(C(=O)O)CC[C@@H](C)CC3)ccc2OCCO)c1 [Example 122, trans-1-[4-(2-Hydroxy-ethoxy)-3-(2-m-tolyl-ethoxy)-benzoylamino]-4-methyl-cyclohexanecarboxylic acid]
100 to 1000 nM | Cc1cccc(CCOc2cc(C(=O)NC3(C(=O)O)CCCCCC3)ccc2OCCO)c1 [Example 124, 1-[4-(2-Hydroxy-ethoxy)-3-(2-m-tolyl-ethoxy)-benzoylamino]-cycloheptane-carboxylic acid]
< 100 nM | CC[C@H]1CC[C@](NC(=O)c2ccc(OC)c(OCCc3cccc(C4COC4)c3)c2)(C(=O)O)CC1 [Example 127, cis-4-Ethyl-1-{4-methoxy-3-[2-(3-oxetan-3-yl-phenyl)-ethoxy]-benzoylamino}-cyclohexanecarboxylic acid]
100 to 1000 nM | COc1ccc(C(=O)N[C@]2(C(=O)O)CC[C@@H](C)CC2)cc1OCCc1cccc(C2COC2)c1 [Example 128, trans-1-{4-Methoxy-3-[2-(3-oxetan-3-yl-phenyl)-ethoxy]-benzoylamino}-4-methyl-cyclohexanecarboxylic acid]
100 to 1000 nM | COc1ccc(C(=O)NC2(C(=O)O)CCCCCC2)cc1OCCc1cccc(C2COC2)c1 [Example 129, 1-{4-Methoxy-3-[2-(3-oxetan-3-yl-phenyl)-ethoxy]-benzoylamino}-cycloheptanecarboxylic acid]
< 100 nM | CC[C@H]1CC[C@](NC(=O)c2ccc(C3COC3)c(OCCc3cccc(C)c3)c2)(C(=O)O)CC1 [Example 130, cis-4-Ethyl-1-[4-oxetan-3-yl-3-(2-m-tolyl-ethoxy)-benzoylamino]-cyclohexanecarboxylic acid]
< 100 nM | Cc1cccc(CCOc2cc(C(=O)N[C@]3(C(=O)O)CC[C@H](C(F)(F)F)CC3)ccc2C2COC2)c1 [Example 131, cis-1-[4-Oxetan-3-yl-3-(2-m-tolyl-ethoxy)-benzoylamino]-4-trifluoromethyl-cyclohexanecarboxylic acid]
< 100 nM | CC[C@H]1CC[C@](NC(=O)c2cnc(OC)c(-c3cccc(OC(F)(F)F)c3)c2)(C(=O)O)CC1 [Example 299, cis-4-ethyl-1-{[6-methoxy-5-(3-trifluoromethoxy-phenyl)-pyridine-3-carbonyl]-amino}-cyclohexanecarboxylic acid]
< 100 nM | CC[C@H]1CC[C@](NC(=O)c2cnc(OC)c(-c3cc(Cl)cc(C(F)(F)F)c3)c2)(C(=O)O)CC1 [Example 302]
< 100 nM | COc1ncc(C(=O)N[C@]2(C(=O)O)CC[C@H](C)CC2)cc1-c1cccc(OC(F)(F)F)c1 [Example 307]
< 100 nM | COc1ncc(C(=O)N[C@]2(C(=O)O)CC[C@H](C)CC2)cc1-c1cccc(Cl)c1Cl [Example 310]
< 100 nM | COc1ncc(C(=O)N[C@]2(C(=O)O)CC[C@@H](C)CC2)cc1-c1cccc(Cl)c1Cl [Example 311]
< 100 nM | COc1ncc(C(=O)N[C@]2(C(=O)O)CC[C@H](C)CC2)cc1-c1cc(F)c(F)c(F)c1 [Example 313]
< 100 nM | CC[C@H]1CC[C@@](NC(=O)c2cnc(OC)c(-c3cccc(C(F)(F)F)c3)c2)(C(=O)O)CC1 [Example 316]
< 100 nM | COc1ncc(C(=O)N[C@]2(C(=O)O)CC[C@@H](C)CC2)cc1-c1cccc(C(F)(F)F)c1 [Example 318]
< 100 nM | COc1ccc(-c2cc(C(=O)N[C@]3(C(=O)O)CC[C@H](C)CC3)cnc2OC)cc1Cl [Example 319]
< 100 nM | COc1ccc(-c2cc(C(=O)N[C@]3(C(=O)O)CC[C@@H](C)CC3)cnc2OC)cc1Cl [Example 320]
< 100 nM | CC[C@H]1CC[C@](NC(=O)c2ccc(OC)c(-c3cccc(OC(F)(F)F)c3)c2)(C(=O)O)CC1 [Example 327]
< 100 nM | COc1ccc(C(=O)N[C@]2(C(=O)O)CC[C@H](C)CC2)cc1-c1cccc(OC(F)(F)F)c1 [Example 329]
1000 to 30000 nM | COc1ccc(C(=O)N[C@]2(C(=O)O)CC[C@@H](C)CC2)cc1-c1cccc(OC(F)(F)F)c1 [Example 330]
< 100 nM | CC[C@H]1CC[C@](NC(=O)c2ccc(OC)c(-c3cccc(C(F)(F)F)c3)c2)(C(=O)O)CC1 [Example 331]
< 100 nM | CC[C@H]1CC[C@](NC(=O)c2ccc(OC)c(-c3ccc(OC)c(Cl)c3)c2)(C(=O)O)CC1 [Example 351]
< 100 nM | CC[C@H]1CC[C@@](NC(=O)c2ccc(OC)c(-c3ccc(OC)c(Cl)c3)c2)(C(=O)O)CC1 [Example 352]
< 100 nM | CC[C@H]1CC[C@@](NC(=O)c2cnc(OC)c(OCCc3ccccc3)c2)(C(=O)O)CC1 [Example 355, trans-4-Ethyl-1-[(6-methoxy-5-phenethyloxy-pyridine-3-carbonyl)-amino]-cyclohexanecarboxylic acid]
< 100 nM | COc1ncc(C(=O)N[C@]2(C(=O)O)CC[C@H](C)CC2)cc1OCCc1cccc(Cl)c1 [Example 356, cis-1-({5-[2-(3-Chloro-phenyl)-ethoxy]-6-methoxy-pyridine-3-carbonyl}-amino)-4-methyl-cyclohexanecarboxylic acid]
< 100 nM | CC[C@H]1CC[C@](NC(=O)c2cnc(OC)c(OCCc3cccc(Cl)c3)c2)(C(=O)O)CC1 [Example 357, cis-1-({5-[2-(3-Chloro-phenyl)-ethoxy]-6-methoxy-pyridine-3-carbonyl}-amino)-4-ethyl-cyclohexanecarboxylic acid]
